Entries after “also recorded” stand apart in the source; their conditions may differ.
How the values were obtained:
ZDF rats [1] = experiment: Pancreas histopathology, insulin staining and TUNEL in ZDF rats; type: in vivo; details: following four weeks of daily treatment
From the text: Pancreas samples from Example 26 are stored in 10% NBF and used in this study. All tissue samples were processed through graded alcohols, cleared in xylene and infiltrated and embedded into paraffin. For the pancreas four 4 micron sections were cut, one was stained with Hematoxylin and Eosin for histopathology, two were immunohistochemically stained with an antibody to insulin to determine beta cell mass and one was stained for apoptosis with the tunel technique.
The insulin staining procedure was performed as follows: Endogenous peroxidase activity was inhibited by incubation in 3% hydrogen peroxide. Non-specific staining was blocked with DAKO Protein Block Serum-Free (Dako, Carpinteria, Calif.). Insulin positive cells were immunohistochemically stained with a polyclonal guinea pig anti-swine insulin antibody at room temperature for 30 minutes (Dako, Carpinteria, Calif.). After incubation with primary antibody, the tissue sections were sequentially incubated with Envision+ HRP Rabbit (Dako, Carpinteria, Calif.). Staining was developed with Liquid DAB+ (Dako, Carpinteria, Calif.) and counterstained with hematoxylin.
Pancreas samples were stained for apoptosis as follows: 4 micron sections were cut and stained for TUNEL utilizing the following kit In Situ Cell Death Detection Kit, AP (Roche Applied Science, catalog 11 684 809 910).

[2] = system: BB19 cells, human BCECs (brain capillary endothelial cells); experiment: Cyclosporin uptake assay; type: cell-based; details: 0.1 μM test compound; 1 hour incubation
Description: (§1) BB19 cells, human BCECs (brain capillary endothelial cells) immortalized with the E6E7 genes of human papilloma virus, were kindly provided from Jacques G. Prudhomme, Department of Biology, University of California, Riverside, U.S.A. The cells were cultured as monolayer culture in Amniomax™-C100 basal medium (catalog number 17001-157) with Amniomax™-C100 supplement (catalog number 12556-049) (Invitrogen, Basel, CH).
(§2) Cells were seeded onto culture surfaces precoated with 10 μg/cm^2 rat tail collagen type I (BD Bioscience, Allschwil, CH) at a density of approximately 50′000 cells/cm^2 and were cultured in an incubator at 37° C. with 5% CO2, 95% fresh air and saturated humidity. For uptake assays, cells were seeded on precoated 96-well plates. Assays were performed at confluency, after 6 days in culture.
(§3) BB19 cells were seeded 50′000 cells/cm^2 on 96-well plates (Falcon) and incubated under condition described above for 6 days. Before starting the assay, cells were washed 2 times with pre-warmed Dulbecco's MEM with Glutamax-I (catalog number 61965) (Invitrogen AG, Basel, CH), supplemented with 1% non essential amino acids, 1% sodium pyruvate, 50 μg/ml gentamycin (Invitrogen AG) (DMEM). Cells were then incubated for 15 min at 37° C. and 120 rpm in DMEM with or without the specified concentrations of test compounds under investigation. After this pre-incubation, cells were incubated in DMEM containing [propyl-3H]-dihydro-FK506 (3H-tacrolimus, 1 μCi/ml, 34 nM) and with or without the specified concentrations of test compounds for 1 hour at 37° C. and 120 rpm. During this 1-hour incubation period, influx and efflux of the substrate, ^3H-tacrolimus, occur. After the 1-hour incubation period, assay was terminated by placing the assay plate on ice and washing the cells twice with ice-cold DMEM. Determination of cell associated ^3H-tacrolimus was performed by addition of Insta Gel and scintillation liquid to trypsinized cells followed by analysis on a scintillation counter (Packard TriCarb2000, Can berra Packard S.A.). The results are expressed as: % of control=100×[^3H-tacrolimus conc. with test compound]/[^3H-tacrolimus conc. with vehicle]
The cyclosporin uptake assay was performed similarly as described above for tacrolimus uptake assay except that ^3H-cyclosporin was used in place of ^3H-tacrolimus.

[3] = system: BB19 cells, human BCECs (brain capillary endothelial cells); experiment: Tacrolimus uptake assay; type: cell-based; details: Endothelial cell, 1 h, 0.1 μM test compound, 1 hour incubation, 3H-tacrolimus 34 nM, read-out: cell associated ^3H-tacrolimus uptake, % of control
Description: as §1, §2, §3

[4] = system: diet-induced obese mice (C57Bl/6, 60% high fat diet); experiment: Diet induced obese mice: IP-GTT and hyperinsulinemic euglycemic clamp; type: in vivo; details: 10 mg/kg I.P. daily
Description: Twenty-three (23) week old C57Bl/6 mice are placed on 60% high fat diet (HFD). After 9 weeks of HFD, mice are injected daily with either vehicle (PBS/NaCO3) or fisetin-3-O-methylphosphonate (compound 3) at a dosage of 10 mg/kg delivered via I.P. injection. HFD is continued throughout the injection period. After 2 weeks (week 10 and 11) of injection, mice are tested for basal blood (non-fasted) glucose levels by tail blood withdrawal. After 3 weeks (week 12) of injection, IP glucose tolerance test (IP-GTT) is performed at a dose of 1 gm dextrose per kilogram body weight. After 4 weeks (week 13) of injection, cannulation surgery is performed on anesthetized mice. Mice are allowed to recover 6 days. After 6 days, hyperinsulinemic euglycemic clamp studies are performed on the mice. After 7 weeks (week 16) of injections, a second IP-GTT is performed on the mice. Three days after the second IP-GTT, mice are sacrificed and blood and tissue samples are collected for further analysis.

ZDF rats [5] = experiment: Oral glucose tolerance test (OGTT) in ZDF rats after the 4 week study; type: in vivo; details: glucose 2 g/Kg PO
Description: Following the 4 week study described in Example 26 above, the animals were fasted for 12 hours and on day-29, pre-drug blood samples are collected and glucose level and insulin level are measured. The animals are treated intraperitoneally (i.p.) with the following compounds:
Thirty (30) minutes after the treatment, pre-glucose blood samples are collected and the animals are then dosed with glucose (2 g/Kg, PO). Tail vein blood samples are collected at 30, 60, 90 and 120 minutes. Glucose levela and insulin leveal are measured. FIG. 31 show the plasma glucose level measured during OGTT. […] FIG. 32 show the plasma insulin level measured during OGTT. Phosphonated pyrone analogs raise insulin output in response to OGTT.

male ZDF rats = experiment: 4 week study in ZDF rats (compound 2, compound 3); type: in vivo
From the text: Seven week old male ZDF rats are used for the study.
Experimental Design: This study is a 4 week study Using 32 7-week old male ZDF rats, divided into 4 treatment arms (8 rats/arm).

male db/db mice = experiment: 4-week study in db/db mice; type: in vivo
From the text: The animals are maintained (starting at 7-week old) on a 12-hr light and 12-hr dark cycle, and provided with commercial rodent chow, LabDiet® 5K52, and water ad libitum.

male C57BL/6 mice = experiment: Plasma and liver triglyceride in C57BL/6 mice; type: in vivo
Description: Experimental Design: This study is a 2-week study conducted with male C57BL/6 mice (24 animals, 3 treatment arms, 8 rats/arm) 9-week old at the start of compound treatment. The animals are maintained (starting at 8-week old) on a 12-hr light and 12-hr dark cycle, and provided with commercial rodent chow Purina 5001 and water ad libitum.
The stock solution of vehicle (HCO-60) is composed of 200 mg of HCO-60 per mL of 80% alcohol. Vehicle is prepared by diluting the HCO-60 stock solution 1:10 with saline. Compound 3 stock solutions are prepared in HCO-60 stock solution and diluted with saline or vehicle to the appropriate dose concentration.
Tail-vein-blood samples are collected from each rat 24 hour after the last treatment (day-14) for plasma triglyceride determination. Animals are sacrificed to obtain liver for triglyceride determination.

[6] = is known to be; cited from earlier work

O=c1c(OCP(=O)(O)O)c(-c2ccc(O)c(O)c2)oc2cc(O)ccc12 [Compound 3, Fisetin-3-O-methylphosphonic acid]
islet cell apoptosis (ZDF rats [1]; TUNEL): decreases in islet cell apoptosis | decrease in islet vacuolar degeneration (inhibition) (ZDF rats [1]): 43% | decrease in pancreatic inflammation (inhibition) (ZDF rats [1]): 35% | cell associated ^3H-cyclosporin uptake, % of control [2]: 71 % of control | activity at 0.1 µM [3]: 44% | basal glucose [4]: reduces basal glucose | hepatic glucose output [4]: impacts hepatic glucose output; also recorded: reduces hepatic glucose output | insulin output in response to glucose challenge [4]: less insulin output is required | tissue glucose uptake during hyperinsulinemic euglycemic clamp [4]: enhances tissue glucose uptake | response to IP glucose challenge ([4]; IP-GTT 1 gm dextrose per kilogram): improves response to glucose challenge | plasma insulin level during OGTT (ZDF rats [5]): raises insulin output | plasma glucose level during OGTT (ZDF rats [5]; compound 2 100 mg/kg, compound 3 50 mg/kg i.p.): protect against hyperglycemia | plasma insulin levels (male ZDF rats; 4 weeks daily i.p., compared to vehicle treated animals): require lower insulin levels to maintain nomal glucose levels | plasma glucose levels (male ZDF rats; 4 weeks daily i.p., compound 2 100 mg/kg, compound 3 100 mg/kg day 4 and 5, 50 mg/kg day 6-28, rosiglitazone 6 mg/kg): maintains steady glucose levels | glycated hemoglobin levels (% HbA1c) at termination (male ZDF rats; compared to vehicle treated animals): lower glycated hemoglobin levels | triglycerides (male ZDF rats; day 14 and day 21, over vehicle controls): marked decreases in triglycerides | body weights (male db/db mice; 4 weeks of daily treatment): essentially identical that of vehicle treated animals | liver triglyceride at sacrifice (day-29) (male db/db mice; compound 3 10 mg/kg daily i.p.): significantly lower than vehicle treated mice | plasma cholesterol levels on Day-28 (male db/db mice; compound 3 10 mg/kg daily i.p.): significantly lower than vehicle or rosiglitazone treated mice | plasma triglyceride levels on Day-28 (male db/db mice; compound 3 10 mg/kg daily i.p.): significantly lower than vehicle or rosiglitazone treated mice | plasma glucose level on Day-28 (male db/db mice; daily i.p., compound 3 30 and 10 mg/kg, rosiglitazone 10 mg/kg): lower than vehicle treated control mice | liver triglyceride (male C57BL/6 mice; 30 mg/kg daily i.p. for 13 days, compared to vehicle): significantly reduces liver triglyceride | plasma triglyceride (male C57BL/6 mice; daily i.p. for 13 days, 30 and 3 mg/kg): reduces plasma triglyceride

O=c1c(O)c(-c2ccc(O)c(O)c2)oc2cc(O)cc(O)c12 [quercetin aglycone, quercetin]
serum half-life [6]: 19 to 25 h

From patent US20100297020A1, “PHOSPHORYLATED AND PHOSPHONATED PYRONE ANALOGS FOR THERAPEUTIC TREATMENT” (Limerick Biopharma, Inc., priority 2008, published 2010)
